Experimental data: PMC7756341, “Liposomal FRET Assay Identifies Potent Drug‐Like Inhibitors of the Ceramide Transport Protein (CERT)” (Chemistry (Weinheim an Der Bergstrasse, Germany), 2020)
Several values for one entry are separate records, joined by “and”; a condition that tells them apart may be missing. Equal entries are not always repeated.

Key:
HeLa cells [1] = test: Sphingolipid content of treated HeLa cells by quantitative mass spectrometry; format: cell-based; conditions: for Cer16 / Cer18 / Cer20 / Cer22 / Cer24 / Cer24:1 / Cer total / S1P / SM16 / SM18 / SM20 / SM22 / SM24 / SM24:1 / SM total / Sph / ratio total SM/Cer: HeLa, 42h, single replicates; for Cer16 / Cer18 / Cer20 / Cer22 / Cer24 / Cer24:1 / Cer total / S1P / SM16 / SM18 / SM20 / SM22 / SM24 / SM24:1 / SM total / Sph: 500.000 cells per sample
Procedure, shortened: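 HeLa cells were plated in six-well plates at 177000 cells per well in DMEM containing 4mM L-glutamine, 10% FBS and 1% Penicillin-Streptomycin, then exposed to inhibitor. Harvested cells were adjusted to 500.000 per sample, extracted with methanol/chloroform (2:1) containing Cer17 and d31-SM16 internal standards, and quantified for ceramides and sphingomyelins by C8 reversed-phase HPLC coupled to ESI+ triple-quadrupole MS/MS.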

HeLa cells [2] = test: Cellular localization of BODIPY-ceramide by confocal microscopy; format: cell-based; conditions: 10 µM inhibitor, 2 h
Procedure: 5.1 Cellular Localization of BODIPY-Ceramide
HeLa cells were seeded in 8 well chamber slides (ibidi µ-Slide 8 Well) in RPMI 1640 medium supplemented with 10% (v/v) heat‐inactivated FCS, 1 mM sodium pyruvate and 2 mM L-glutamine at 37 °C and 5% (v/v) CO2 in a humidified incubator. The day after, cells were incubated with inhibitors for 2 h at a concentration of 10 µM or left untreated by replacing the medium with fresh medium supplemented with the respective inhibitors. After 2 h of incubation, BODIPY FL C5-ceramide (Thermo Fisher) was added to a final concentration of 0,25 µM and imaging was immediately done using an LSM 780 laser scanning confocal microscope (Carl Zeiss). No additional wash steps were performed. After 1 h of incubation, DNA was counterstained using Hoechst 33342. For quantification of BODIPY-Ceramide trafficking, cells were transfected with pECFP-GalT the day before inhibitor incubation for the expression of an eCFP fusion of the human galactosyltransferase (GalT; amino acids 1-60), which localizes at the Golgi apparatus. After incubation with the respective inhibitors (see above), cells were imaged at 30 min post addition of BODIPY FL C5-ceramide. Mean BODIPY intensities of regions of interest surrounding eCFP-GalT-positive Golgi stacks were measured (40 cells per biological replicate, 4 biological replicates in total) using ImageJ software (Rasband, W.S., ImageJ, U. S. National Institutes of Health, Bethesda, Maryland, USA, https://imagej.nih.gov/ij/, 1997-2018) and divided by the total BODIPY intensity detected in the field of view. Quantification (Fig 10B) is expressed as normalized intensity ratio (GA/total).
Figure S10. A Uptake of BODIPY FL C5-ceramide to HeLa cells assessed by normalized fluorescence intensity B Distribution of BODIPY FL C5-ceramide by normalized fluorescence […]
(1 picture or pasted object on this page, not shown here)
Figure S11. BODIPY-Ceramide trafficking. Confocal images showing distribution of BODIPY FL C5-ceramide (green) and Golgi apparatus costaining (eCFP-GalT; blue) in HeLa cells pretreated with 10 µM of respective inhibitors or left untreated. Figures show representative images (n = 4 biological replicates with 40 cells per biological replicate); scale bars, 10 µm.

SMILES: Cc1cc(C2=NOC(c3cc(Cl)cc(Cl)c3)(C(F)(F)F)C2)ccc1C(=O)NCC(=O)NCC(F)(F)F (centres unmarked) [20D5, Fluralaner]
- effect on total sphingomyelin (HeLa cells [1]; HeLa cells, 48 hours, serum-reduced medium): dose‐dependent reduction
- Cer16 (HeLa cells [1]; 1 µM): 45,48 pmol/sample and 40,19 pmol/sample and 39,73 pmol/sample
- Cer18 (HeLa cells [1]; 1 µM): 6,03 pmol/sample and 4,12 pmol/sample and 3,84 pmol/sample
- Cer20 (HeLa cells [1]; 1 µM): 2,67 pmol/sample and 1,37 pmol/sample and 1,12 pmol/sample
- Cer22 (HeLa cells [1]; 1 µM): 11,46 pmol/sample and 9,24 pmol/sample and 9,12 pmol/sample
- Cer24 (HeLa cells [1]; 1 µM): 40,67 pmol/sample and 36,50 pmol/sample and 37,27 pmol/sample
- Cer24:1 (HeLa cells [1]; 1 µM): 46,05 pmol/sample and 40,74 pmol/sample and 40,44 pmol/sample
- Cer total (HeLa cells [1]; 1 µM): 152,37 pmol/sample and 131,71 pmol/sample and 131,97 pmol/sample
- S1P (HeLa cells [1]; 1 µM): 1,21 pmol/sample and 1,34 pmol/sample and 1,10 pmol/sample
- SM16 (HeLa cells [1]; 1 µM): 1625,68 pmol/sample and 1717,57 pmol/sample and 1686,01 pmol/sample
- SM18 (HeLa cells [1]; 1 µM): 54,98 pmol/sample and 59,04 pmol/sample and 56,68 pmol/sample
- SM20 (HeLa cells [1]; 1 µM): 18,10 pmol/sample and 18,45 pmol/sample and 17,14 pmol/sample
- SM22 (HeLa cells [1]; 1 µM): 110,98 pmol/sample and 111,56 pmol/sample and 111,04 pmol/sample
- SM24 (HeLa cells [1]; 1 µM): 197,09 pmol/sample and 206,21 pmol/sample and 199,98 pmol/sample
- SM24:1 (HeLa cells [1]; 1 µM): 621,75 pmol/sample and 662,66 pmol/sample and 645,68 pmol/sample
- SM total (HeLa cells [1]; 1 µM): 2628,58 pmol/sample and 2775,49 pmol/sample and 2716,53 pmol/sample
- Sph (HeLa cells [1]; 1 µM): 3,74 pmol/sample and 3,07 pmol/sample and 3,46 pmol/sample
- ratio total SM/Cer (HeLa cells [1]; 1 µM): 19,9 and 18,2 and 20,6
- Cer16 (HeLa cells [1]; 2.5 µM): 40,44 pmol/sample and 43,49 pmol/sample and 36,97 pmol/sample
- Cer18 (HeLa cells [1]; 2.5 µM): 4,61 pmol/sample and 4,98 pmol/sample and 3,95 pmol/sample
- Cer20 (HeLa cells [1]; 2.5 µM): 1,33 pmol/sample and 1,40 pmol/sample and 1,09 pmol/sample
- Cer22 (HeLa cells [1]; 2.5 µM): 9,74 pmol/sample and 10,99 pmol/sample and 8,69 pmol/sample
- Cer24 (HeLa cells [1]; 2.5 µM): 35,83 pmol/sample and 40,22 pmol/sample and 34,92 pmol/sample
- Cer24:1 (HeLa cells [1]; 2.5 µM): 37,47 pmol/sample and 43,87 pmol/sample and 37,54 pmol/sample
- Cer total (HeLa cells [1]; 2.5 µM): 129,42 pmol/sample and 144,94 pmol/sample and 123,16 pmol/sample
- S1P (HeLa cells [1]; 2.5 µM): 1,21 pmol/sample and 1,29 pmol/sample (2×)
- SM16 (HeLa cells [1]; 2.5 µM): 1311,55 pmol/sample and 1447,18 pmol/sample and 1450,27 pmol/sample
- SM18 (HeLa cells [1]; 2.5 µM): 48,19 pmol/sample and 50,02 pmol/sample and 51,79 pmol/sample
- SM20 (HeLa cells [1]; 2.5 µM): 16,11 pmol/sample and 17,46 pmol/sample and 16,39 pmol/sample
- SM22 (HeLa cells [1]; 2.5 µM): 98,76 pmol/sample and 109,23 pmol/sample and 102,97 pmol/sample
- SM24 (HeLa cells [1]; 2.5 µM): 179,29 pmol/sample and 202,61 pmol/sample and 193,22 pmol/sample
- SM24:1 (HeLa cells [1]; 2.5 µM): 587,13 pmol/sample and 553,18 pmol/sample and 603,33 pmol/sample
- SM total (HeLa cells [1]; 2.5 µM): 2401,78 pmol/sample and 2207,08 pmol/sample and 2429,82 pmol/sample
- Sph (HeLa cells [1]; 2.5 µM): 3,04 pmol/sample and 3,17 pmol/sample and 2,91 pmol/sample
- ratio total SM/Cer (HeLa cells [1]; 2.5 µM): 19,5 and 17,1 and 16,8
- Cer16 (HeLa cells [1]; 5 µM): 48,26 pmol/sample and 50,29 pmol/sample and 47,46 pmol/sample
- Cer18 (HeLa cells [1]; 5 µM): 5,41 pmol/sample and 5,92 pmol/sample and 5,34 pmol/sample
- Cer20 (HeLa cells [1]; 5 µM): 1,35 pmol/sample and 1,41 pmol/sample and 1,29 pmol/sample
- Cer22 (HeLa cells [1]; 5 µM): 9,51 pmol/sample and 10,83 pmol/sample and 9,59 pmol/sample
- Cer24 (HeLa cells [1]; 5 µM): 33,23 pmol/sample and 39,15 pmol/sample and 38,78 pmol/sample
- Cer24:1 (HeLa cells [1]; 5 µM): 35,26 pmol/sample and 38,24 pmol/sample and 35,25 pmol/sample
- Cer total (HeLa cells [1]; 5 µM): 133,01 pmol/sample and 145,85 pmol/sample and 137,71 pmol/sample
- S1P (HeLa cells [1]; 5 µM): 1,32 pmol/sample and 1,22 pmol/sample and 1,19 pmol/sample
- SM16 (HeLa cells [1]; 5 µM): 1128,33 pmol/sample and 1262,96 pmol/sample and 1233,63 pmol/sample
- SM18 (HeLa cells [1]; 5 µM): 43,19 pmol/sample and 47,39 pmol/sample and 44,90 pmol/sample
- SM20 (HeLa cells [1]; 5 µM): 13,45 pmol/sample and 15,19 pmol/sample and 13,75 pmol/sample
- SM22 (HeLa cells [1]; 5 µM): 74,74 pmol/sample and 85,38 pmol/sample and 82,05 pmol/sample
- SM24 (HeLa cells [1]; 5 µM): 132,70 pmol/sample and 158,23 pmol/sample and 155,99 pmol/sample
- SM24:1 (HeLa cells [1]; 5 µM): 419,73 pmol/sample and 481,61 pmol/sample and 461,72 pmol/sample
- SM total (HeLa cells [1]; 5 µM): 1812,15 pmol/sample and 2050,77 pmol/sample and 1992,04 pmol/sample
- Sph (HeLa cells [1]; 5 µM): 3,25 pmol/sample and 3,29 pmol/sample and 4,27 pmol/sample
- ratio total SM/Cer (HeLa cells [1]; 5 µM): 13,6 and 14,1 and 14,5
- effect on intracellular distribution of BODIPY-Cer (HeLa cells [2]): significantly influenced
